Measurements: patent US6258830A, “Stable gel formulation for topical treatment of skin conditions” (Allergan Sales, Inc., priority 1999, dated 2001)
Converted amounts (≈) assume the structure as drawn.

Key:
[1] = Solubility of AGN in various aqueous solutions at 35° ± 0.5° C. (Table I); format: physicochemical
[2] = Solubility of AGN in PEG 400; format: physicochemical; conditions: peg 400, organic solvent or mixture
[3] = Saturated solubility of AGN in the vehicle of the gels (HPLC), with Student's t-test against gel B; format: physicochemical; conditions: for solubility: gel vehicle with propionic acid, propionic acid for carbomer
Procedure: To determine the saturated solubility of the drug in the vehicle of each of the 18 gel formulations, solvent systems containing the same ingredients as the gels were prepared. The saturated solubility was determined once in solutions of the vehicle without carbomer and base, and another time by substituting propionic acid for carbomer in order to ease filtration of the solution while keeping the ionic strength of the solution as close to that of the gel as possible. The solutions were filtered through a 0.45 μm filter to remove any crystals which may have formed. The resulting solutions were then diluted and their drug content was assayed using High Performance Liquid Chromatography (HPLC) as described in Method HL036.
(§1) The saturated solubility values, and slopes of the line obtained from the plot of % drug released vs. square root of time for each gel were analyzed statistically. […] RS/Discover® was used to calculate equations which fit the data and to construct response surfaces.

[4] = In vitro release of AGN from the 0.1% gels, slope of % drug released vs. square root of time; format: physicochemical; conditions: Table XVIII, beyond release of 10% of the drug
Procedure: The release of AGN through each of the 0.1% gels was studied using a previously developed release method. The collected fractions were then assayed directly using HPLC Method HL036.
The data generated from the assay of the collected fractions for each gel were used to plot the release profile of the drug as the % drug released vs. square root of time. For each release profile, the slope of the linear region containing at least 6 points was calculated using linear regression. The standard deviation and correlation coefficient of each slope was also calculated.
as §1
Drug release was studied from all […] formulated gels as described previously. The release profiles for each gel were an average of six runs, and were plotted as % Drug released vs. Square root of time.
In order to compare the release rates of drug from each formulation, the slope of the linear portion of the plot of % Drug released vs. Square root of time was computed for each of the 18 gels. The slope for each plot was obtained as an average of six runs and based on a correlation coefficient (R^2)>0.94800.

[5] = Stability of AGN formulations; format: physicochemical
[6] = Treatment of acne and psoriasis; design: species or system humans; conditions: in vivo

solubility ([1]; 0.07% Polysorbate 40, 35° C.): 3.7 ± 0.6 µg/mL (≈ 10.5 µM)
solubility ([1]; 0.15% Polysorbate 40, 35° C.): 9.2 ± 1.4 µg/mL (≈ 26.2 µM)
solubility ([1]; 0.30% Polysorbate 40, 35° C.): 18.3 ± 1.8 µg/mL (≈ 52.1 µM)
solubility ([1]; 0.50% Polysorbate 40, 35° C.): 33.2 ± 0.3 µg/mL (≈ 94.5 µM)
solubility ([1]; 1% Oleth-20/Water, 35° C.): 73.3 ± 3 µg/mL (≈ 209 µM)
solubility ([1]; 2% Oleth-20/Water, 35° C.): 149.2 ± 0.6 µg/mL (≈ 425 µM)
solubility ([1]; 4% Oleth-20/Water, 35° C.): 311 ± 7 µg/mL (≈ 885 µM)
Avg. Solubility ([1]; 20% Ethanol/Water, 35° C.): Not Detected
Avg. Solubility ([1]; 20% PEG-400/Water, 35° C.): Not Detected
solubility ([1]; 96% Oleth-20/Water, 35° C.): 435.2 ± 1.1 µg/mL (≈ 1240 µM)
Avg. Solubility ([1]; 100% Water, 35° C.): Not Detected
solubility ([1]; organic solvent or mixture, 40% Ethanol/Water, 35° C.): 147 ± 20.9 µg/mL (≈ 419 µM)
solubility ([1]; organic solvent or mixture, 40% PEG-400/Water, 35° C.): 4.4 ± 0.5 µg/mL (≈ 12.5 µM)
solubility ([1]; organic solvent or mixture, 60% Ethanol/Water, 35° C.): 22235 ± 7.8 µg/mL (≈ 63300 µM)
solubility ([1]; organic solvent or mixture, 60% PEG-400/Water, 35° C.): 89.6 ± 1.1 µg/mL (≈ 255 µM)
solubility ([1]; organic solvent or mixture, 80% Ethanol/Water, 35° C.): 8220 ± 221 µg/mL (≈ 23400 µM)
solubility ([1]; organic solvent or mixture, 80% PEG-400/Water, 35° C.): 2160 ± 89.9 µg/mL (≈ 6150 µM)
solubility in water (in words) ([1]; water): extremely low
solubility [2]: 2200 µg/mL (≈ 6260 µM)
drug present in the aqueous based gel in the form of solid particles ([3]; from solubility data): approximately 90%
solubility ([3]; hexylene glycol 0%, polysorbate 40 0.0%, poloxamer 407 0.0%): 14.5 ± 0.3 µg/mL (≈ 41.3 µM)
solubility ([3]; hexylene glycol 0%, polysorbate 40 0.0%, poloxamer 407 0.2%): 67.9 ± 4.4 µg/mL (≈ 193 µM)
solubility ([3]; hexylene glycol 0%, polysorbate 40 0.0%, poloxamer 407 0.4%): 87.4 ± 6.6 µg/mL (≈ 249 µM)
solubility ([3]; hexylene glycol 0%, polysorbate 40 0.2%, poloxamer 407 0.0%): 52.3 ± 2.7 µg/mL (≈ 149 µM)
solubility ([3]; hexylene glycol 0%, polysorbate 40 0.2%, poloxamer 407 0.2%): 69.7 ± 3.2 µg/mL (≈ 198 µM)
solubility ([3]; hexylene glycol 0%, polysorbate 40 0.2%, poloxamer 407 0.4%): 80 ± 4 µg/mL (≈ 228 µM)
solubility ([3]; hexylene glycol 0%, polysorbate 40 0.4%, poloxamer 407 0.0%): 89.3 ± 8.8 µg/mL (≈ 254 µM)
solubility ([3]; hexylene glycol 0%, polysorbate 40 0.4%, poloxamer 407 0.2%): 77.5 ± 0.8 µg/mL (≈ 221 µM)
solubility ([3]; hexylene glycol 0%, polysorbate 40 0.4%, poloxamer 407 0.4%): 86.7 ± 6 µg/mL (≈ 247 µM)
solubility ([3]; hexylene glycol 2%, polysorbate 40 0.0%, poloxamer 407 0.0%): 20.9 ± 1.7 µg/mL (≈ 59.5 µM)
solubility ([3]; hexylene glycol 2%, polysorbate 40 0.0%, poloxamer 407 0.2%): 73.7 ± 9 µg/mL (≈ 210 µM)
solubility ([3]; hexylene glycol 2%, polysorbate 40 0.0%, poloxamer 407 0.4%): 86.3 ± 2.6 µg/mL (≈ 246 µM)
solubility ([3]; hexylene glycol 2%, polysorbate 40 0.2%, poloxamer 407 0.0%): 75.9 ± 3.5 µg/mL (≈ 216 µM)
solubility ([3]; hexylene glycol 2%, polysorbate 40 0.2%, poloxamer 407 0.2%): 93.8 ± 0.1 µg/mL (≈ 267 µM)
solubility ([3]; hexylene glycol 2%, polysorbate 40 0.2%, poloxamer 407 0.4%): 102 ± 2.9 µg/mL (≈ 290 µM)
solubility ([3]; hexylene glycol 2%, polysorbate 40 0.4%, poloxamer 407 0.0%): 98 ± 11.7 µg/mL (≈ 279 µM)
solubility ([3]; hexylene glycol 2%, polysorbate 40 0.4%, poloxamer 407 0.2%): 130 ± 6.2 µg/mL (≈ 370 µM)
solubility ([3]; hexylene glycol 2%, polysorbate 40 0.4%, poloxamer 407 0.4%): 118 ± 3.8 µg/mL (≈ 336 µM)
rate of drug release over time [4]: remains constant even after three hours
stabilization of alcoholic solutions containing AGN ([5]; alcoholic solutions with BHT (preformulation report)): stabilized by BHT
stability of laboratory formulation of AGN ([5]; prepared without ascorbic acid): poor stability
SMILES: CCOC(=O)c1ccc(C#Cc2ccc3c(c2)C(C)(C)CCS3)nc1 [AGN]
activity in the treatment of acne and psoriasis [6]: active in the treatment of acne and psoriasis
